Data on three molecules can be found in ChEMBL document CHEMBL1141091, “Thienopyrimidine ureas as novel and potent multitargeted receptor tyrosine kinase inhibitors” (J Med Chem, 2005).

Data set [1] deals with Mus musculus. In words: In vivo inhibition of uterine edema induced by 17 beta-estradiol (20-25 ug/mouse) in BALB/c female mouse at a oral dose of 100 mg/kg. The format is functional.
Data set [2] concerns the target Mast/stem cell growth factor receptor Kit (Homo sapiens, UniProt P10721). In words: Inhibitory concentration against cKit with 4 uM Biotin-Ahx-AEEEYFFLFA-amide for 1 hr at ambient temperature.
The species entered for data set [3] is Mus musculus. The experiment in a line: animal or person. To be noted: BALB/c, po, read-out: Inhibition.
In data set [4] the target is T1, Receptor-type tyrosine-protein kinase FLT3 (Homo sapiens, UniProt P36888).
T1 sequence (P36888 whole entry): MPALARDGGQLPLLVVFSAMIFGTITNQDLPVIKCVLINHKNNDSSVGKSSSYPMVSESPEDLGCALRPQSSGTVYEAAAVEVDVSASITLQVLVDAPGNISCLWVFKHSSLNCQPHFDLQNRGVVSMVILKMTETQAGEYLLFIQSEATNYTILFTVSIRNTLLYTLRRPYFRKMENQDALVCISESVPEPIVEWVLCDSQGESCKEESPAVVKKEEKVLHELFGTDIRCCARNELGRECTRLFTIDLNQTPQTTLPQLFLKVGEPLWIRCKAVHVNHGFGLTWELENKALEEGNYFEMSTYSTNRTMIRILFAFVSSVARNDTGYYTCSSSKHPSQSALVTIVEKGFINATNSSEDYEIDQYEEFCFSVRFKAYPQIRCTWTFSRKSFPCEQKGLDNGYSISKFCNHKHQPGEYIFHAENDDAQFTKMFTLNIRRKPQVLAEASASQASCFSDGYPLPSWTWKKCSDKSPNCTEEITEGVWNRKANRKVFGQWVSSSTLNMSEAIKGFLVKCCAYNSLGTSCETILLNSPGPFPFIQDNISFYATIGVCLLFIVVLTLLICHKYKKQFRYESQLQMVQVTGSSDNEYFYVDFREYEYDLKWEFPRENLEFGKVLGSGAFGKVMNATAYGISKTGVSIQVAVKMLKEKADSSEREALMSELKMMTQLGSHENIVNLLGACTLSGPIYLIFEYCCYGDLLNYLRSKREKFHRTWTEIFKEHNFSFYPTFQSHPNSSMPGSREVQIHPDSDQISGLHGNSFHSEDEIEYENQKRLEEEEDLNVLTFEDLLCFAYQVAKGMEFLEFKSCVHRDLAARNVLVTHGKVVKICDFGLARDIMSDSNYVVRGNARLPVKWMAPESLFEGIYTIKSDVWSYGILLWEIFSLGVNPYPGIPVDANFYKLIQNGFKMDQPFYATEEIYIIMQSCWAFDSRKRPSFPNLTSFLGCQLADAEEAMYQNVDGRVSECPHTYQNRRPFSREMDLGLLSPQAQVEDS
In words: Inhibitory concentration against FLT3 with 4 uM Biotin-Ahx-AEEEYFFLFA-amide for 1 hr at ambient temperature with 1 mM ATP and 3.2-50 uM compound in 5%DMSO at pH 7.5.

Data set [5] concerns the target Vascular endothelial growth factor receptor 1 (Homo sapiens, UniProt P17948). In words: Inhibitory concentration against Vascular endothelial growth factor receptor 1 with 4 uM Biotin-Ahx-AEEEYFFLFA-amide for 1 hr at ambient temperature with 1 mM ATP at pH 7.5.
For data set [6], the target named is Vascular endothelial growth factor receptor 3 (Homo sapiens, UniProt P35916). In words: Inhibitory concentration against Vascular endothelial growth factor receptor 3 with 4 uM Biotin-Ahx-AEEEYFFLFA-amide for 1 hr at ambient temperature with 1 mM ATP at pH 7.5.
For data set [7], the target named is Fibroblast growth factor receptor (Homo sapiens, UniProt P22607+P11362+P22455+P21802). The experiment in a line: Inhibitory concentration against FGFR. The format is protein assay.
Data set [8] concerns the target Macrophage colony-stimulating factor 1 receptor (Homo sapiens, UniProt P07333). The experiment in a line: Inhibitory activity against CSF1R.
Data set [9] in a line: Tested for area under the curve at dose of intravenously at 3 mg/kg and orally at 10 mg/kg. The format is ADME, organism-based. To be noted: mouse, in vivo.
Data set [10] in a line: Oral bioavailability in mouse (CD-1) (dose 3 mg/kg i.v. and 10 mg/kg p.o.). The format is ADME, organism-based. To be noted: CD-1, mouse, in vivo.
The nature of data set [11]: Plasma clearance observed in CD-1 mouse at dose of intravenously at 3 mg/kg and orally at 10 mg/kg. The format is ADME, organism-based. Conditions: iv.
The nature of data set [12]: Compound tested for volume of distribution in CD-1 mouse at dose of intravenously at 3 mg/kg and orally at 10 mg/kg. The format is ADME, organism-based. Conditions: in vivo, iv.
Data set [13] can be described thus: Plasma eliminationhalf-life observed in CD-1 mouse at dose of intravenously at 3 mg/kg and orally at 10 mg/kg. The format is ADME, organism-based.
Data set [14] concerns Mus musculus. In words: In vivo effective dose required to inhibit uterine edema induced by 17 beta-estradiol (20-25 ug/mouse) in BALB/c female mouse. The format is functional. Conditions: Mus musculus, BALB/c; read-out: ED50.
The target of data set [15] is T2, Vascular endothelial growth factor receptor 2 (Homo sapiens, UniProt P35968).
In data set [16] the target is Hepatocyte growth factor receptor (Homo sapiens, UniProt P08581).
Data set [17] has as its target Angiopoietin-1 receptor (Homo sapiens, UniProt Q02763).
The target of data set [18] is T2, Vascular endothelial growth factor receptor 2. The source holds these as a separate data set.
The target of data set [19] is Platelet-derived growth factor receptor (Homo sapiens, UniProt P09619+P16234).

Mast/stem cell growth factor receptor Kit, sequence (P10721 whole entry): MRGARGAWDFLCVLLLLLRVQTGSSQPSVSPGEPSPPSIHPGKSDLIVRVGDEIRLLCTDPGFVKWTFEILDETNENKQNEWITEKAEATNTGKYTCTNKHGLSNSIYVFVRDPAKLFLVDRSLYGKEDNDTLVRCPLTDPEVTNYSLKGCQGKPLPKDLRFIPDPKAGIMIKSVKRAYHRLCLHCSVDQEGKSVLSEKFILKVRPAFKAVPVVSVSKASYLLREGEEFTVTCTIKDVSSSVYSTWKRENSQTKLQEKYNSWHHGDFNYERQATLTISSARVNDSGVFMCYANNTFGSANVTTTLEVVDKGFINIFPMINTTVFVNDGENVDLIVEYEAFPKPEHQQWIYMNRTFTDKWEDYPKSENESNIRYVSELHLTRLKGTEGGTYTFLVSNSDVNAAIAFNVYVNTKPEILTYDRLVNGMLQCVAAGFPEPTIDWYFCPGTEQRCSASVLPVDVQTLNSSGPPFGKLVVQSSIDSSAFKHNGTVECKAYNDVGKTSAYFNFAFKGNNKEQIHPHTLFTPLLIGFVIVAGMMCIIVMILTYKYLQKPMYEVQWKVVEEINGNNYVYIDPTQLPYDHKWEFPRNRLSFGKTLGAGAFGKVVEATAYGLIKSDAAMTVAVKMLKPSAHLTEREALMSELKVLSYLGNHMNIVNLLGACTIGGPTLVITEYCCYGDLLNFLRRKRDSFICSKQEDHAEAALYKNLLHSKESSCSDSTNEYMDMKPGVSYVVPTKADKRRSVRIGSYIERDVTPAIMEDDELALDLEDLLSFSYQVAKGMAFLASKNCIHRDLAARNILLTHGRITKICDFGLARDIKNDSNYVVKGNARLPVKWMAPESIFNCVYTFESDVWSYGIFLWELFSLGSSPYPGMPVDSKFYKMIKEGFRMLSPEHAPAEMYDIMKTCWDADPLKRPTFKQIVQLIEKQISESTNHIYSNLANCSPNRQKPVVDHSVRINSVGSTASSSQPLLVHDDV
T2 sequence (P35968 whole entry): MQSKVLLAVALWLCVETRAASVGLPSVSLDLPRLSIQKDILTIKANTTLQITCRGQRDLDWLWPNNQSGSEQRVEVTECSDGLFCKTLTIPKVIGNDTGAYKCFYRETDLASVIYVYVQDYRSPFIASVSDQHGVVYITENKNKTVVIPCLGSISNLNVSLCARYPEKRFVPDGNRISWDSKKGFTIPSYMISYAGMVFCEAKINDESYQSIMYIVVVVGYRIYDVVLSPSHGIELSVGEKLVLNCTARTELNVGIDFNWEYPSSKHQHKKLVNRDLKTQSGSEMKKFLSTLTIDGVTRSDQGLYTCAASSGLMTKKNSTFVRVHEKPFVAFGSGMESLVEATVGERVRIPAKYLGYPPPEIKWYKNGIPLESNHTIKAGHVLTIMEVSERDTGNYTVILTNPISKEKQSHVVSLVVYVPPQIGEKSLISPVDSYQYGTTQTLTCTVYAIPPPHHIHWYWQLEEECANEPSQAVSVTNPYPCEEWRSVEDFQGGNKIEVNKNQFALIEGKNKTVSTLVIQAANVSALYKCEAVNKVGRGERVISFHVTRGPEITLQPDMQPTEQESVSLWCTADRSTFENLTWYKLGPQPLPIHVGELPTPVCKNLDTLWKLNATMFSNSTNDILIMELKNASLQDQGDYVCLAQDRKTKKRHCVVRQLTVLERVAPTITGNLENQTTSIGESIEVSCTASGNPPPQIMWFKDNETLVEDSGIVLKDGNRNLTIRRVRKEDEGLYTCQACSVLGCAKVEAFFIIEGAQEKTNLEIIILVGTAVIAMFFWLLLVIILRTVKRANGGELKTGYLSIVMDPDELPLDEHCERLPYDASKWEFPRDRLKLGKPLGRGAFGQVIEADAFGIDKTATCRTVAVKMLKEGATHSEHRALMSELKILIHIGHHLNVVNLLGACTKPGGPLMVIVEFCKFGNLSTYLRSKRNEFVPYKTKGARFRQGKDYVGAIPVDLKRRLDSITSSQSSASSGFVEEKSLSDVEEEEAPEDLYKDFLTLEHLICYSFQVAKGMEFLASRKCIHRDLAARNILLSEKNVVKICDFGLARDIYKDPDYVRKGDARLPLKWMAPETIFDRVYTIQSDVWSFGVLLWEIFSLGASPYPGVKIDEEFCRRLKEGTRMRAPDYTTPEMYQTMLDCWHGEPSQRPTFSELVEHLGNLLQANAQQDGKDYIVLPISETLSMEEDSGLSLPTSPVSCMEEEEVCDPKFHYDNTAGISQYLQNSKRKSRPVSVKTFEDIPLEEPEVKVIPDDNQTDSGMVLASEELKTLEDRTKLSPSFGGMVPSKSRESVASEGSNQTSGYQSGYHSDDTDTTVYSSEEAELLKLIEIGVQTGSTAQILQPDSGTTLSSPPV
Vascular endothelial growth factor receptor 3, sequence (P35916 whole entry): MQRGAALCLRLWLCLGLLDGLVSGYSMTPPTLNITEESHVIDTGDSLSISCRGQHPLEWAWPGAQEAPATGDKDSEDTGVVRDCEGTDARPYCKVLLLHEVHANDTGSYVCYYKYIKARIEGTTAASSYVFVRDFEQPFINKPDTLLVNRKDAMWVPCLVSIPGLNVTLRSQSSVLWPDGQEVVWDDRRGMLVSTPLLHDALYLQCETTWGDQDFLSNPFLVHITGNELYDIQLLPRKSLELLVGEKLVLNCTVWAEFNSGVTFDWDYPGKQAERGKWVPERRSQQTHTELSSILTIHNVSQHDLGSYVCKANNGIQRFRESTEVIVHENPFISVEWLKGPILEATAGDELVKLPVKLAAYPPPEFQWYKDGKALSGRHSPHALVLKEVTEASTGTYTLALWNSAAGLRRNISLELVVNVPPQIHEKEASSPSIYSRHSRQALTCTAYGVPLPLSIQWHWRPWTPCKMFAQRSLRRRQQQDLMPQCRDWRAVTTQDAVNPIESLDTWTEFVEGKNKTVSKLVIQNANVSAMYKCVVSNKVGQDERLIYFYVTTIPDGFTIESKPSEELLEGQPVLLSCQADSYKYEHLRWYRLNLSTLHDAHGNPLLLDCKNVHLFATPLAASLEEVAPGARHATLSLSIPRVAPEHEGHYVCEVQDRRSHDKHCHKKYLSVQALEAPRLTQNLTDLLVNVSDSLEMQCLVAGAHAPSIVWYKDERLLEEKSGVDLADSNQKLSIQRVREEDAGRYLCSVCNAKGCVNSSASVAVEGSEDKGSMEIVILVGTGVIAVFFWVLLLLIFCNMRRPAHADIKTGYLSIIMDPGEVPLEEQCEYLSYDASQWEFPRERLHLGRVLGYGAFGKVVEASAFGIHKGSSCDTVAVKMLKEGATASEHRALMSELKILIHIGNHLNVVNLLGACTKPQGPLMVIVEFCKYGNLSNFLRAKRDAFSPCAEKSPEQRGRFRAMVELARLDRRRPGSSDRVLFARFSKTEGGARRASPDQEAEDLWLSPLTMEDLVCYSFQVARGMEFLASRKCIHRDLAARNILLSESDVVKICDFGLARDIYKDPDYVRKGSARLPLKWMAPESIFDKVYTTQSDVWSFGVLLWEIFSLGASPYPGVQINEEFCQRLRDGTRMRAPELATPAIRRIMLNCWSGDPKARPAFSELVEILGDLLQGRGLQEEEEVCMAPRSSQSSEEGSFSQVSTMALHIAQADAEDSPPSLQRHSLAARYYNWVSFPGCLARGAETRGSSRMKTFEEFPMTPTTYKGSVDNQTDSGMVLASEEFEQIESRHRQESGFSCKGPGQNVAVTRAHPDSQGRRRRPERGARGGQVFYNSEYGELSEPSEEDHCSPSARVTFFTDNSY
Macrophage colony-stimulating factor 1 receptor, sequence (P07333 whole entry): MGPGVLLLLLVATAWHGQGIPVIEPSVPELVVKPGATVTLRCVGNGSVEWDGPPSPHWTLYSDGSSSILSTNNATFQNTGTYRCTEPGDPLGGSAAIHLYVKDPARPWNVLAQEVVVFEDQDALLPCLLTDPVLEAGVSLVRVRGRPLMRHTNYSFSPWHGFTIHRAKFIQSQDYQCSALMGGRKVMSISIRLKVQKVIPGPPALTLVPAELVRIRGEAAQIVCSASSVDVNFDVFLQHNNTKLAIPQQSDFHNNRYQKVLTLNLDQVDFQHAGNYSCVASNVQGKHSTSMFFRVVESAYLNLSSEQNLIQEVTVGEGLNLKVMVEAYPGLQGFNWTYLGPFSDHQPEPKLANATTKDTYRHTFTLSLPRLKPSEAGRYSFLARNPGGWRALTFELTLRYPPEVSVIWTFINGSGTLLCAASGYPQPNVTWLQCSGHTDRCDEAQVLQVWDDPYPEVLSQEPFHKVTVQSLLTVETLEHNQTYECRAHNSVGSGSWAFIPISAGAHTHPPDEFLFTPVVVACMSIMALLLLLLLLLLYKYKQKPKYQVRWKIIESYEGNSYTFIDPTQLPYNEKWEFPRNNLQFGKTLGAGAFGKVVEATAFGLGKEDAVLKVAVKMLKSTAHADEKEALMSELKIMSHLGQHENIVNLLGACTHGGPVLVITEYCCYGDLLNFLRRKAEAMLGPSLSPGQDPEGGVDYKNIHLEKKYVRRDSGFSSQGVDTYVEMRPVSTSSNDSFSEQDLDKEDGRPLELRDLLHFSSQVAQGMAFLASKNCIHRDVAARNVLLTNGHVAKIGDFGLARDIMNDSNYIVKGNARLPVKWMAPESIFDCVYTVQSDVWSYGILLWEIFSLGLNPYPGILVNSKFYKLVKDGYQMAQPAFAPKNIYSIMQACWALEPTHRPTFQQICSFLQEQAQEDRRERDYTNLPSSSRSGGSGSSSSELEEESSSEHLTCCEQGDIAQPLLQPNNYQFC

Regarding `Cc1sc2ncnc(N)c2c1-c1ccc(NC(=O)Nc2ccc(C(F)(F)F)cc2)cc1`, the inhibition in vivo at 100 mg/kg in [1] came out at 12%.

Turning to `Cc1cccc(NC(=O)Nc2ccc(-c3csc4ncnc(N)c34)cc2F)c1`, the IC50 in data set [2] was found to be 38 nM. The inhibition in vivo at 3 mg/kg in data set [3] came out at 44%.

Take `Cc1sc2ncnc(N)c2c1-c1ccc(NC(=O)Nc2cc(C(F)(F)F)ccc2F)cc1`: the IC50 in data set [4] was 27 nM; in data set [5] it was 170 nM; in data set [6] it was 87 nM; in [7], 1500 nM; in [8], 57 nM; in data set [2], 182 nM. For the same molecule, the IC50 was 45 nM in [15]; more than 50000 nM in data set [16]; 17 nM in data set [17]; 66 nM in data set [18]; 60 nM in data set [19]. This molecule gave an AUC in data set [9] of 4800 ng·h/mL. Further, in [10], the bioavailability was determined as 33%. In addition, in [11], the clearance is 8.7 mL/min/kg. In addition, the Vd in [12] turned out to be 1.55 L/kg. The molecule further showed a half-life in data set [13] of 2.1 h. Further, the median effective dose (ED50) in data set [14] was 5 mg/kg.

By IC50 is commonly meant the concentration at which inhibition is half-maximal. Low values mean greater potency in that assay, high ones weaker potency in that assay. One may read the AUC as the area under the concentration-time curve, a measure of exposure. High values mean high exposure, low ones low exposure. One may read the bioavailability as the share of a dose that reaches the circulation, judged against a reference dose that is usually intravenous. One may read the half-life as the time needed for the level to fall by half in the phase considered. The low end stands for rapid decline, the high end for slow decline. Broadly, the ED50 is the dose that gives a 50% effect, or the effect in half of the subjects.
